As a reminder, the pIC50 is the IC50 on a negative log10 scale, so that one unit is a factor of ten.

pIC50: −log10 of the molar value. Some results are limits rather than exact numbers.

T1 sequence (O08795 15-521): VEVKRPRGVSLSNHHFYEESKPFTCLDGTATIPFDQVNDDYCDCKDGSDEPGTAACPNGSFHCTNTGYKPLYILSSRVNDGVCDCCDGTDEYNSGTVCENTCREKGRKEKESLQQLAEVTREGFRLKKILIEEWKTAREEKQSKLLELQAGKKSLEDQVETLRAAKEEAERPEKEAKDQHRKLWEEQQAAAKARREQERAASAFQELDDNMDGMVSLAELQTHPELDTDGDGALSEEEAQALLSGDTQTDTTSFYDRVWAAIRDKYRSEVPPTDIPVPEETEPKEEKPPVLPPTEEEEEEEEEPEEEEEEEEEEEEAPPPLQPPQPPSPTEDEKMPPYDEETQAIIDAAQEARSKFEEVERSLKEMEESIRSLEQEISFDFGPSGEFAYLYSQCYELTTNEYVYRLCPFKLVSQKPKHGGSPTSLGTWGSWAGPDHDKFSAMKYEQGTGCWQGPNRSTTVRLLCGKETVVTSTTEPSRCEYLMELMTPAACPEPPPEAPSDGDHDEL
T1 sequence (Q8BHN3 33-944): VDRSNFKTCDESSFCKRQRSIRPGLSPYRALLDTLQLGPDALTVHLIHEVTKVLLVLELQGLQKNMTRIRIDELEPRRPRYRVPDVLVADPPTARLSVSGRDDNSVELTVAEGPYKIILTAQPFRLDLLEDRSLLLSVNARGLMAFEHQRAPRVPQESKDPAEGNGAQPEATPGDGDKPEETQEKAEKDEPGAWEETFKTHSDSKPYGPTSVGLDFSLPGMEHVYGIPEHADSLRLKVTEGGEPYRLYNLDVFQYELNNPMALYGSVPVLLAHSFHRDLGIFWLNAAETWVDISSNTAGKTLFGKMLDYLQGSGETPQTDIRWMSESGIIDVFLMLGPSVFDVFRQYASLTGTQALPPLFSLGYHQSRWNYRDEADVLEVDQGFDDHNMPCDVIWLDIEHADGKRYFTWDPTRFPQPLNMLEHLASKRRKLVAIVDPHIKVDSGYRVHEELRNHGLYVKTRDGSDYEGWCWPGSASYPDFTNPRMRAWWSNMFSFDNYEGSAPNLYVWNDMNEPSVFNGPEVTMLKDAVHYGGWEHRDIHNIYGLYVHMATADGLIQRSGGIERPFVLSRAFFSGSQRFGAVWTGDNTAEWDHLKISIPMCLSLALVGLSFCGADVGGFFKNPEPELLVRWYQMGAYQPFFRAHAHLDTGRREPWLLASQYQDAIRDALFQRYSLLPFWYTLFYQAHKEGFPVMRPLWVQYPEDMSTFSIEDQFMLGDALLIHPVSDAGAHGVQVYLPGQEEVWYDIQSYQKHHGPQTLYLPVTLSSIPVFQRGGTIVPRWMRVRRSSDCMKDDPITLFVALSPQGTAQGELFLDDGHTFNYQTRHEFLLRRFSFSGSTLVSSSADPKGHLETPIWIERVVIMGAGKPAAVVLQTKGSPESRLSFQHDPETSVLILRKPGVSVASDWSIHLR

One experiment concerns the target T1, recombinant alpha-glucosidase II (murine full-length glucosidase II, alpha and beta subunits, Glu 2) (Mus musculus, UniProt Q8BHN3).
T1 construct: made in house; host or cells: HEK-293T cells transduced with BacMam viruses (75% alpha, 25% beta); protein harvested from culture supernatant
In words: Alpha-glucosidase II assay (4-methylumbelliferyl-alpha-D-pyranoside substrate, fluorescence).
Details: not given
The format is biochemical.
Take `Cc1cc(NCc2cccc(CN3C[C@H](O)[C@@H](O)[C@H](O)[C@H]3CO)n2)cc(-c2ccc[nH]2)c1` [Compound 1335, (2R,3R,4R,5S)-2-(hydroxymethyl)-1-{[6-({[3-methyl-5-(1H-pyrrol-2-yl)phenyl]amino}methyl)pyridin-2-yl]methyl}piperidine-3,4,5-triol]: the pIC50 was less than 4.00.

Still in this experiment, the particulars now being: Glucosidase 2; read-out: Glu2 IC50.
Consider `COC(OC)c1cc(NCCCCCCN2C[C@H](O)[C@@H](O)[C@H](O)[C@H]2CO)cc(-c2ncccn2)c1` [Compound 1124, (2R,3R,4R,5S)-1-(6-{[3-(dimethoxymethyl)-5-(pyrimidin-2-yl)phenyl]amino}hexyl)-2-(hydroxymethyl)piperidine-3,4,5-triol], for which the pIC50 is 7.74.
For `Cc1cc(-c2ccco2)ccc1NCc1ccc(CN2C[C@H](O)[C@@H](O)[C@H](O)[C@H]2CO)cc1` [Compound 1324, (2R,3R,4R,5S)-1-{[4-({[4-(furan-2-yl)-2-methylphenyl]amino}methyl)phenyl]methyl}-2-(hydroxymethyl)piperidine-3,4,5-triol], the pIC50 was 6.50.
In the case of `[N-]=[N+]=Nc1ccc(NCc2ccc(-c3ccc(CN4C[C@H](O)[C@@H](O)[C@H](O)[C@H]4CO)cc3)cc2)c([N+](=O)[O-])c1` [Compound 1166, (2R,3R,4R,5S)-1-[(4′-{[(4-azido-2-nitrophenyl)amino]methyl}-[1,1′-biphenyl]-4-yl)methyl]-2-(hydroxymethyl)piperidine-3,4,5-triol], the pIC50 was 5.70.
The same measure, in the same setting: under `[N-]=[N+]=Nc1ccc(NCCc2ccc(CCN3C[C@H](O)[C@@H](O)[C@H](O)[C@H]3CO)s2)c([N+](=O)[O-])c1` [Compound 1186, (2R,3R,4R,5S)-1-[2-(5-{2-[(4-azido-2-nitrophenyl)amino]ethyl}hiophen-2-yl)ethyl]-2-(hydroxymethyl)piperidine-3,4,5-triol] stands 9.00.
On to `[N-]=[N+]=Nc1ccc(NCc2cc(CCN3C[C@H](O)[C@@H](O)[C@H](O)[C@H]3CO)cs2)c([N+](=O)[O-])c1` [Compound 1174, (2R,3R,4R,5S)-1-[2-(5-{[(4-azido-2-nitrophenyl)amino]methyl}thiophen-3-yl)ethyl]-2-(hydroxymethyl)piperidine-3,4,5-triol], for which the pIC50 is more than 9.00.
For `COc1cc(CC2CCOC2)cc(NCCCCCCN2C[C@H](O)[C@@H](O)[C@H](O)[C@H]2CO)c1` (stereo partly drawn) [Compound 1141, (2R,3R,4R,5S)-2-(hydroxymethyl)-1-[6-({3-methoxy-5-[(oxolan-3-yl)methyl]phenyl}amino)hexyl]piperidine-3,4,5-triol], the pIC50 is 6.86.
On to `COc1cc(-c2cnccn2)ccc1NCCCCCCN1C[C@H](O)[C@@H](O)[C@H](O)[C@H]1CO` [Compound 1199, (2R,3R,4R,5S)-2-(hydroxymethyl)-1-(6-{[2-methoxy-4-(pyrazin-2-yl)phenyl]amino}hexyl)piperidine-3,4,5-triol], for which the pIC50 was 7.92.
With `CS(=O)(=O)Nc1ccc(NCCCCCCN2C[C@H](O)[C@@H](O)[C@H](O)[C@H]2CO)c([N+](=O)[O-])c1` [Compound 1300, N-[3-nitro-4-({6-[(2R,3R,4R,5S)-3,4,5-trihydroxy-2-(hydroxy-methyl)piperidin-1-yl]hexyl}amino)phenyl]methanesulfonamide], the pIC50 was 7.85.
For `COc1cc(NCCCCCCN2C[C@H](O)[C@@H](O)[C@H](O)[C@H]2CO)cc(C2CCCO2)c1` (stereo partly drawn) [Compound 1146, (2R,3R,4R,5S)-2-(hydroxymethyl)-1-(6-{[3-methoxy-5-(oxolan-2-yl)phenyl]amino}hexyl)piperidine-3,4,5-triol], the pIC50 was 7.82.
On the same count and under the same terms, the figure for `COc1cc(NCCCCCCN2C[C@H](O)[C@@H](O)[C@H](O)[C@H]2CO)cc(-c2cnccn2)c1` [Compound 1197, (2R,3R,4R,5S)-2-(hydroxymethyl)-1-(6-{[3-methoxy-5-(pyrazin-2-yl)phenyl]amino}hexyl)piperidine-3,4,5-triol] is 9.00.
Take `OC[C@@H]1[C@@H](O)[C@H](O)[C@@H](O)CN1CCCCCCNc1ccc(-c2cnccn2)cc1Cl` [Compound 1198, (2R,3R,4R,5S)-1-(6-{[2-chloro-4-(pyrazin-2-yl)phenyl]amino}hexyl)-2-(hydroxymethyl)piperidine-3,4,5-triol]: the pIC50 is 7.77.
Consider `[N-]=[N+]=Nc1ccc(NCc2cccc(CN3C[C@H](O)[C@@H](O)[C@H](O)[C@H]3CO)c2)c([N+](=O)[O-])c1` [Compound 1169, (2R,3R,4R,5S)-1-[(3-{[(4-azido-2-nitrophenyl)amino]methyl}phenyl)methyl]-2-(hydroxymethyl)piperidine-3,4,5-triol], for which the pIC50 is 4.79.
As to `OC[C@@H]1[C@@H](O)[C@H](O)[C@@H](O)CN1CCCCCCNc1cc(Cl)cc(CN2CCCO2)c1` [Compound 1183, (2R,3R,4R,5S)-1-[6-({3-chloro-5-[(1,2-oxazolidin-2-yl)methyl]phenyl}amino)hexyl]-2-(hydroxymethyl)piperidine-3,4,5-triol], the negative-log IC50 (pIC50) was 8.40.
With `OC[C@@H]1[C@@H](O)[C@H](O)[C@@H](O)CN1CCCCCCNc1cc(Cl)cc(-c2cnccn2)c1` [Compound 1196, (2R,3R,4R,5S)-1-(6-{[3-chloro-5-(pyrazin-2-yl)phenyl]amino}hexyl)-2-(hydroxymethyl)piperidine-3,4,5-triol], the pIC50 is 8.70.
`O=[N+]([O-])c1cc(CCO)ccc1NCCCCCCN1C[C@H](O)[C@@H](O)[C@H](O)[C@H]1CO` [Compound 1292, (2R,3R,4R,5S)-1-(6-{[4-(2-hydroxyethyl)-2-nitrophenyl]amino}hexyl)-2-(hydroxymethyl)piperidine-3,4,5-triol]: the pIC50 is 8.07.
As for `[N-]=[N+]=Nc1ccc(NCCc2cc(Br)cc(CCN3C[C@H](O)[C@@H](O)[C@H](O)[C@H]3CO)c2)c([N+](=O)[O-])c1` [Compound 1140, (2R,3R,4R,5S)-1-[2-(3-{2-[(4-azido-2-nitrophenyl)amino]ethyl}-5-bromophenyl)ethyl]-2-(hydroxymethyl)piperidine-3,4,5-triol], the pIC50 was 7.35.
With `Cc1cc(NCc2cccc(CN3C[C@H](O)[C@@H](O)[C@H](O)[C@H]3CO)c2)cc(-c2ncccn2)c1` [Compound 1035, (2R,3R,4R,5S)-2-(hydroxymethyl)-1-{[3-({[3-methyl-5-(pyrimidin-2-yl)phenyl]amino}methyl)phenyl]methyl}piperidine-3,4,5-triol], the pIC50 was 4.18.
As to `COc1cc(NCCCCCCN2C[C@H](O)[C@@H](O)[C@H](O)[C@H]2CO)cc(C2=CCCCC2)c1` [Compound 1149, (2R,3R,4R,5S)-1-(6-{[3-(cyclohex-1-en-1-yl)-5-methoxy-phenyl]amino}hexyl)-2-(hydroxymethyl)piperidine-3,4,5-triol], the pIC50 was more than 9.00.
With `N#Cc1cc(NCc2cccc(CN3C[C@H](O)[C@@H](O)[C@H](O)[C@H]3CO)c2)cc(C2=COCCO2)c1` [Compound 1044, 3-(5,6-dihydro-1,4-dioxin-2-yl)-5-{[(3-{[(2R,3R,4R,5S)-3,4,5-trihydroxy-2-(hydroxymethyl)piperidin-1-yl]methyl}phenyl)methyl]amino}benzonitrile], the pIC50 was 5.57.
With `CS(=O)(=O)c1cc(Br)cc(NCc2cccc(CN3C[C@H](O)[C@@H](O)[C@H](O)[C@H]3CO)c2)c1` [Compound 1022, (2R,3R,4R,5S)-1-[(3-{[(3-bromo-5-methanesulfonylphenyl)amino]methyl}phenyl)methyl]-2-(hydroxymethyl)piperidine-3,4,5-triol], the pIC50 is 5.10.
For `C[C@@H]1CN(c2ccc(NCc3ccc(CN4C[C@H](O)[C@@H](O)[C@H](O)[C@H]4CO)cc3)c([N+](=O)[O-])c2)C[C@H](C)O1` [Compound 1014], the pIC50 was 8.40.
`COc1cc(NCCCCCCN2C[C@H](O)[C@@H](O)[C@H](O)[C@H]2CO)cc(C2=CCCO2)c1` [Compound 1147, (2R,3R,4R,5S)-1-(6-{[3-(4,5-dihydrofuran-2-yl)-5-methoxyphenyl]amino}hexyl)-2-(hydroxymethyl)piperidine-3,4,5-triol]: the pIC50 was 7.47.
Regarding `CC(C)(C)c1cc(NCCCCCCN2C[C@H](O)[C@@H](O)[C@H](O)[C@H]2CO)cc(-c2ncccn2)c1` [Compound 1151, (2R,3R,4R,5S)-1-(6-{[3-tert-butyl-5-(pyrimidin-2-yl)phenyl]amino}hexyl)-2-(hydroxymethyl)piperidine-3,4,5-triol], the pIC50 is more than 9.00.
As to `[N-]=[N+]=Nc1ccc(NCCNc2cc(Cl)cc(CCN3C[C@H](O)[C@@H](O)[C@H](O)[C@H]3CO)c2)c([N+](=O)[O-])c1` [Compound 1143, (2R,3R,4R,5S)-1-{2-[3-({2-[(4-azido-2-nitrophenyl)amino]ethyl}amino)-5-chlorophenyl]ethyl}-2-(hydroxymethyl)piperidine-3,4,5-triol], the pIC50 is 8.70.
Take `COc1cc(NCCc2ccc(CCN3C[C@H](O)[C@@H](O)[C@H](O)[C@H]3CO)cc2)cc(C2=COCCO2)c1` [Compound 1155, (2R,3R,4R,5S)-1-{2-[4-(2-{[3-(5,6-dihydro-1,4-dioxin-2-yl)-5-methoxyphenyl]amino}ethyl)phenyl]ethyl}-2-(hydroxymethyl)piperidine-3,4,5-triol]: the pIC50 was more than 9.00.
In the case of `[N-]=[N+]=Nc1ccc(NCCc2cc(CCN3C[C@H](O)[C@@H](O)[C@H](O)[C@H]3CO)ccc2C2CCCCC2)c([N+](=O)[O-])c1` [Compound 1171, (2R,3R,4R,5S)-1-[2-(3-{2-[(4-azido-2-nitrophenyl)amino]ethyl}-4-cyclohexylphenyl)ethyl]-2-(hydroxymethyl)piperidine-3,4,5-triol], the pIC50 was 5.99.
Turning to `COc1cc(NCCCCCCN2C[C@H](O)[C@@H](O)[C@H](O)[C@H]2CO)cc(C2CCCCC2)c1` [Compound 1148, (2R,3R,4R,5S)-1-{6-[(3-cyclohexyl-5-methoxyphenyl)amino]hexyl}-2-(hydroxymethyl)piperidine-3,4,5-triol], the pIC50 was more than 9.00.
Regarding `Cc1nc2cc(-c3ncccn3)ccc2n1CCCCCCN1C[C@H](O)[C@@H](O)[C@H](O)[C@H]1CO` [Compound 1339, (2R,3R,4R,5S)-2-(hydroxymethyl)-1-{6-[2-methyl-5-(pyrimidin-2-yl)-1H-1,3-benzodiazol-1-yl]hexyl}piperidine-3,4,5-triol], the pIC50 was 6.71.

The values above are taken from US20250197372A1 (priority 2020, published 2025).
